Test [1] has as its target T1, GPR 119 Receptor (Mus musculus, UniProt Q7TQP3).
T1 construct: from tissue; host or cells: whole animal: male C57/6J Jms mice (normal) or diet induced obesity C57BL/6J mice
T1 sequence (Q7TQP3 1-335): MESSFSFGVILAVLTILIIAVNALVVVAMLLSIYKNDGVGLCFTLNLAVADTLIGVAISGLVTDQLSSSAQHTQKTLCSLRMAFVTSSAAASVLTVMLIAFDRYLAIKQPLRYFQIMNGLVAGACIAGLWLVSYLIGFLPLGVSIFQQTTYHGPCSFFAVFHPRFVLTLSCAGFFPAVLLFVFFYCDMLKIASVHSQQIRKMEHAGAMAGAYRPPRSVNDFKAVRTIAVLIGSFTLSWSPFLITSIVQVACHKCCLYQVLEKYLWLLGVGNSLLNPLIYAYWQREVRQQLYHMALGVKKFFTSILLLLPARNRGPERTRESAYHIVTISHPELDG
The test is described as follows: Glucose tolerance test / whole blood glucose level change in disease model animal (DIO mouse). The format is in vivo. Conditions: daily. On the procedure: Male C57BL/6J mice of 6.5 weeks of age were taken with high fat diet (60% kcal, Research Diets) for 12 weeks. The obtained male diet induced obesity (DIO) C57BL/6J mice of 18.5 weeks of age were fasted for 16 hours before the start of glucose tolerance test. The experimental animal groups consist of: • A. a vehicle group (10% EtOH, 20% HPBCD in D.W.), • B. a positive control group administered with Sitagliptin (30 mg/kg), and • C. test groups administered with compound 770 and Compound 1028 (10, 30 mgkg and combination administration with sitagliptin 30 mg/kg).
Each test compounds was administered at the same time of every day for 2 weeks. Before the compound administration, whole blood glucose level was determined using a Glucometer (ACCU-CHEK, Roche). At 30 minutes after compound administration, whole blood glucose level was determined once again, and 20% glucose (2 g/kg/10 mL) was administered orally. Whole blood glucose level was determined at 20, 40, 60, 80, and 120 minutes after 20% glucose administration. Area under the curve (AUC) of whole blood glucose level was obtained using GraphPad Prism 5.0. The effect of glucose tolerance was adjudged with the corrected area under the curve (cAUC), on which the base value of glucose area under the curve was excluded.
Whole blood glucose level was measured at about 1 hour after test compound administration from caudal vein of mice using Glucometer. Whole blood glucose level was determined three times totally, that is, (1) at prior to the start of drug administration, (2) after 1 week from the start of 2-weeks drug administration, and (3) after the termination of 2-weeks drug administration. Each determination was started with 20% glucose administration, and then perfomed at 20, 40, 60, 80, and 120 minutes after 20% glucose administration.

In test [2] the target is T2, human GPR119 receptor (Homo sapiens, UniProt Q8TDV5).
T2 construct: host or cells: GeneBLAzer T-Rex GPR 119 CHO-K1 DA cells (CHO-K1)
T2 sequence (Q8TDV5 1-335): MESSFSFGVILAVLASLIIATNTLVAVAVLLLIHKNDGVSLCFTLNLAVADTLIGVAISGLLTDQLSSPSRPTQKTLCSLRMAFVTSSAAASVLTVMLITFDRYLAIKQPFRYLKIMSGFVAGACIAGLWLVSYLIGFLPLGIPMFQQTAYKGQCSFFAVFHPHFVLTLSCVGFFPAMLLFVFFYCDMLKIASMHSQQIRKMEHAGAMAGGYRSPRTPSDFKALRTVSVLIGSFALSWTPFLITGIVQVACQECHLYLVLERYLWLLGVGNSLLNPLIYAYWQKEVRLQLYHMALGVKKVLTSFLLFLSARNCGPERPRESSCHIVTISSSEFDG
The test is described as follows: Activity test for human GPR119 receptor (GeneBLAzer T-Rex GPR 119 CHO-K1 DA cells, fluorescence reporter). Format: cell-based. The settings on record: human GPR119 CHO-K1 reporter cells, 5 hours treatment, ratio to vehicle control well, read-out: % Activation; for activity at 0.1 µM: test compound conc. 0.1 μM; for activity at 1 µM: test compound conc. 1 μM; for activity at 10 µM: test compound conc. 10 μM. As to the method:
As a human GPR119 receptor expression cell for this test, the cell line “GeneBLAzer™ T-Rex GPR 119 CHO-K1 DA cells” that is commercially available from Invitrogen, was used. The cell was incubated in the DMEM media containing 1% dialyzed fetal bovine serum etc. The cell incubator was kept at constant temperature and constant humidity of 37° C., 5% CO2.
The human GPR119 receptor expressing cell was used to this test. Each of test compounds was added to be final concentrations of 0.1, 1, 10 μM in 96 well and tested in duplicate. A fixed amount of cell was added to each well of 96 well separately, and then treated with the test compound for 5 hours. After treatment of color development agent for 2 hours, the fluorescence value was determined with plate reader. To the luminous wavelength of control well, which was not treated with the agonist sample, but in which only a vehicle (i.e., cell) was contained, the ratio of the luminous wavelength of test well, which was treated with the agonist sample, was calculated, and then converted to obtain % value.
All the results were expressed as mean±SD, and each test groups and the control group were compared using student's t-test to adjudge the effects of each test groups.

The target in test [3] is T1, GPR 119 Receptor. The test can be described thus: Glucose tolerance test in normal mouse (animal test of activity for the GPR 119 receptor). Format: in vivo. Conditions: normal male C57/6J Jms mice, oral glucose 2 g/kg, whole blood glucose AUC. As to the method:
Male C57/6J Jms mice of 6-7 weeks of age were fasted for 16 hours before the start of glucose tolerance test. The experimental animal groups consist of: • A. a vehicle group (10% EtOH, 20% HPBCD in saline), • B. a positive control group administered with MBX-2982 (10 mg/kg), and • C. test groups administered with compound 516, 581, 586, 612, 640, 644 or etc. (10 mg/kg).
Before compound administration, that is, at 0 hour, whole blood glucose level was determined using a Glucometer (ACCU-CHEK, Roche). At 30 minutes after compound administration, whole blood glucose level was determined once again, and 20% glucose (2 g/kg/10 mL) was administered orally. Whole blood glucose level was determined at 20, 40, 60, 80, and 120 minutes after 20% glucose administration. Area under the curve (AUC) of whole blood glucose level was obtained using GraphPad Prism 5.0. The effect of glucose tolerance was adjudged with the corrected area under the curve (cAUC), on which the base value of glucose area under the curve was excluded.

Where [4] appears, read: 30 mpk alone, 0 week (prior to start of administration).

Structures are written as SMILES.

Consider `CC(C)(F)CN1CCC(COc2ccc(-c3ccc(C(=O)N4CCC[C@H]4C(N)=O)c(F)c3)nc2)CC1` [Compound 770, (S)-1-(2-fluoro-4-(5-((1-(2-fluoro-2-methylpropyl)piperidin-4-yl)methoxy)pyridine-2-yl)benzoyl)pyrrolidine-2-carboxamide], for which the “Whole Blood Glucose Level Change (%) by drug administration” value is 0% in test [1] (10 mpk alone, 0 week (prior to start of administration)); 22.9% in test [1] (10 mpk alone, 1 week); 24.0% in test [1] (10 mpk alone, 2 weeks); 0% in test [1] (setting [4]); 25.5% in test [1] (30 mpk alone, 1 week); 26.6% in test [1] (30 mpk alone, 2 weeks). Besides, the activity at 0.1 µM in test [2] worked out at 228%. The activity at 1 µM in test [2] amounted to 280%. The activity at 10 µM in test [2] was found to be 310%. Besides, in test [3], the “Decrease % of AUC at 10 mg/kg” value is given as 47%.

For `N[C@@H](CC(=O)N1CCn2c(nnc2C(F)(F)F)C1)Cc1cc(F)c(F)cc1F` [Sitagliptin, reference compound], the “Whole Blood Glucose Level Change (%) by drug administration” value in test [1] (setting [4]) was 0%; in test [1] (30 mpk alone, 1 week), 25.5%; in test [1] (30 mpk alone, 2 weeks) it was 31.7%.

On to `CC(C)(F)CN1CCC(COc2ccc(-c3ccc(C(=O)N4CCC[C@H]4C(N)=O)c(F)c3)cn2)CC1` [Compound 658, (S)-1-(2-fluoro-4-(6-((1-(2-fluoro-2-methylpropyl)piperidin-4-yl)methoxy)pyridine-3-yl)benzoyl)pyrrolidine-2-carboxamide], for which, in test [2], the activity at 0.1 µM was 289%, the activity at 1 µM turned out to be 248% and the activity at 10 µM amounted to 311%. For the same compound, the “Decrease % of AUC at 10 mg/kg” value in test [3] is 38%.

`NC(=O)[C@@H]1CCCN1C(=O)c1ccc(-c2ccc(OCC3CCN(CC4(C(F)(F)F)CC4)CC3)nc2)cc1` [Compound 586, (S)-1-(4-(6-((1-((1-(trifluoromethyl)cyclopropyl)methyl)piperidin-4-yl)methoxy)pyridine-3-yl)benzoyl)pyrrolidine-2-carboxamide]: in test [2], the activity at 0.1 µM came to 213%, the activity at 1 µM was found to be 310% and the activity at 10 µM was found to be 379%. For the same compound, in test [3], the “Decrease % of AUC at 10 mg/kg” value amounted to 34%.

The values above are taken from patent publication US9944600B2, “Piperidine derivatives for GPR119 agonist” (CHONG KUN DANG PHARMACEUTICAL CORP., priority 2012, dated 2018).
